Data on 1 compound can be found in US9435809B2, “Method of treating and reducing the risk of acute myelogenous leukemia” (Memorial Sloan-Kettering Cancer Center, priority 2011, dated 2016).

One experiment deals with THP-1 cells. As to the kind of experiment: MTT growth assay of AML cell lines: THP-1. The settings on record: at 5 μM; MTT assay after 72 hours. Format: cell-based. On the procedure: (§1) Cells were treated with p300 inhibitors at different concentrations in a 96-well plate. After 72 hours, 0.1 mg MTT was added to each well. The samples were incubated at 37° C. for 4 hours and the absorbance was measured at 570 nm by spectrophotometry.

The subject of a further experiment is Id1, p21 and Egr1 mRNA. The experiment can be described thus: qPCR of AML1-ETO activated target genes in Kasumi-1 cells. It is filed as cell-based, human. The settings on record: 24 hours, Lys-CoA-Tat 50 μM, C646 20 μM. On the procedure: The RNA extraction and cDNA generation procedures were described above. The reverse transcription reaction was performed for 10 min at 25° C., 50 min at 50° C., 5 min at 85° C. and 20 min at 37° C. Real-time quantitative PCR was performed using a TaqMan 7500 sequence detector system (Applied Biosystems). The thermal cycle conditions were:
50° C. for 2 min, 95° C. for 10 min to activate Amplitaq Gold DNA polymerase, denaturation at 95° C. for 15 seconds and anneal/extension at 60° C. for 1 min (45 cycles). Quantitative PCR for HPRT was performed to normalize for cDNA loading. The relative quantification of gene expression was calculated using the method […], as described by the manufacturer.
In general terms: Real-time PCR tracks product formation cycle by cycle.

The test system of the next experiment is Kasumi-1 cells. The experiment can be described thus: Growth of Kasumi-1 cells. The following applies: Lys-CoA-Tat and DDDD-Tat 50 μM; C646 concentration not stated. Format: cell-based, human. On the procedure:
(§2) Leukemia cells were obtained from two AML patients with t(8;21) by Ficoll-hypaque separation. Informed consent was obtained from the patients, according to institutional (IRB) guidelines. The cell viabilities of the primary leukemia cells, Kasumi-1 cells, HL60 cells and human CD34^+ cells were assessed by triplicate counting of trypan blue dye-excluding cells under light microscopy. The cell morphology was evaluated by Wright's staining of cells prepared by cytospin centrifugation. Blast cells were isolated from the bone marrow and spleen of the mice with AE9a or MLL-AF9 driven leukemia, and treated for 12 hours with Lys-CoA-Tat or DDDD-Tat (at 50 μM), or C646 vs. C37 (at 20 μM). Female C57Bl/6 mice were sublethally irradiated with 475 cGy, and then injected with 3×10^6 treated blast cells via tail vein.
as §1

For another experiment, the system named is Mono-Mac-1 cells. As to the kind of experiment: MTT growth assay of AML cell lines: Mono-Mac-1. It is filed as cell-based. The settings on record: at 5 μM; MTT assay after 72 hours. How it is done:
as §1
For orientation: Formazan colour is commonly taken as a measure of viable cells.

The next experiment deals with NB4 cells. As to the kind of experiment: MTT growth assay of AML cell lines: NB4. Format: cell-based. The following applies: at 5 μM; MTT assay after 72 hours. How it is done:
as §1

The test system of the next experiment is MO-91 cells. The experiment can be described thus: MTT growth assay of AML cell lines: MO-91. The following applies: at 5 μM; MTT assay after 72 hours. Format: cell-based. On the procedure: as §1
Another experiment deals with histone H3. The experiment can be described thus: Histone H3 acetylation in Kasumi-1 cells (Western blot). Format: cell-based, human. The settings on record: Lys-CoA-Tat 50 μM, C646 10 or 20 μM for 24 hours. An excerpt:
(§3) Anti-p300 (Millipore or Santa Cruz), anti-Flag (Sigma), anti-HA (Santa Cruz), anti-ETO (generated in the Roeder lab or Santa Cruz), anti-AML1 (Zhao, X. et al, Genes Dev 22, 640, 2008), anti-acetylated lysine (Stressgen), anti-acetylated Histone H3 (Millipore), anti-Tubulin (Sigma), anti-TAFII250 (generated in the Roeder lab) and anti-TAF7 (generated in the Roeder lab) antibodies were used. Two anti-acetylated AML1-ETO polyclonal antibodies were generated by immunizing rabbits with the synthetic peptides (TALSPGK [acetylated] MSEA SEQ ID NO: 10 or LAGK [acetylated] LRSGDRS SEQ ID NO: 11) conjugated to KLH. The polyclonal antiserum was collected and purified using a peptide affinity column. The affinity of the antibodies against acetyl-lysine AML1-ETO was measured by dot blot assays. For the dot blot assays, 5 pmol of peptide (measured by Ellman's reagent) was spotted onto a nitrocellulose membrane. The control peptides were as follows: AML1-ETOK24 peptide (TALSPGKMSEA) (SEQ ID NO: 10) and AML1-ETOK43 peptide (LAGK LRSGDRS) (SEQ ID NO: 11).
(§4) The Flag-AE, Flag-AE-ΔNHR1 (aa245-436), Flag-AE-ΔNHR2, Flag-ETO, Flag-ETO-ΔNHR1 and Flag-ETO-ΔNHR2 cDNAs were cotransfected into 80% confluent 293T cells using the FuGene 6 reagent. After 36 hours the cells were lysed in RIPA buffer with 1 mM DTT and DNAse I 1 μg/mL and a proteinase inhibitor cocktail (Roche), and incubated on ice for 30 minutes. […]
(A western blot detects proteins with antibodies after separation by electrophoresis.)

Experiment [1] concerns AE9a expressing mouse leukemia cells. The experiment can be described thus: AE9a mouse AML model, leukemia cells treated ex vivo and injected. It is filed as in vivo. How it is done:
as §2
(§5) Assays were set up in triplicates and the results expressed as the mean±SD. Statistical analyses were performed using Student's t-test. Survival functions were estimated using the Kaplan-Meier method and compared by the log-rank test.

For experiment [2], the system named is acetylated A-EK43 (AML1-ETO). The experiment can be described thus: A-EK43 acetylation in Kasumi-1 cells (IP / Western blot). The following applies: Lys-CoA-Tat 50 μM, C646 10 or 20 μM for 24 hours. Format: cell-based, human.
Excerpt: as §3, §4

A further experiment concerns U937 cells. As to the kind of experiment: MTT growth assay of AML cell lines: U937. It is filed as cell-based. The following applies: at 5 μM; MTT assay after 72 hours. On the procedure: as §1
In another experiment the test system is HEL cells. The experiment can be described thus: MTT growth assay of AML cell lines: HEL. Format: cell-based. The following applies: at 5 μM; MTT assay after 72 hours. How it is done:
as §1

Experiment [3] deals with MLL-AF9 expressing mouse leukemia cells. The experiment can be described thus: MLL-AF9 mouse leukemia model, leukemia cells treated ex vivo and injected. Format: in vivo. The following applies: cells treated ex vivo 12 hours with 50 μM Lys-CoA-Tat/DDDD-Tat or 20 μM C646/C37; sublethally irradiated recipients. On the procedure:
as §2, §5

In the next experiment the test system is HL60 cells. As to the kind of experiment: MTT growth assay of AML cell lines: HL60. Format: cell-based. The following applies: at 5 μM; MTT assay after 72 hours. On the procedure:
as §1

Where [4] appears, read: AE9a cells treated ex vivo 12 hours, 50 μM Lys-CoA-Tat vs DDDD-Tat or 20 μM C646 vs C37.

The structures appear in SMILES notation. Entries after “also recorded” stand apart in the source; their conditions may differ.

With `CC1=NN(c2ccc(C(=O)O)cc2)C(=O)/C1=C\c1ccc(-c2cc(C)c(C)cc2[N+](=O)[O-])o1` [C646], the “growth of THP-1 cells” value in the experiment on THP-1 cells is “minimal effect”. Moreover, in the experiment on Id1, p21 and Egr1 mRNA, the “expression of AML1-ETO activated target genes (Id1, p21 and Egr1 mRNA)” value was “decreased the level; also recorded: downregulated expression”. In addition, the “growth of Kasumi-1 cells” value in the experiment with Kasumi-1 cells was “as did C646”. The “growth of Mono-Mac-1 cells” value in the experiment with Mono-Mac-1 cells is given as “minimal effect”. Also, in the experiment on NB4 cells, the “growth of NB4 cells” value is “inhibited the growth”. The “growth of MO-91 cells” value in the experiment with MO-91 cells is “inhibited the growth”. For the same compound, the “level of acetylated histone H3” value in the experiment on histone H3 is “decreased the level”. In [1] (setting [4]), the “Percent of GFP+ C-Kit+ cells in peripheral blood” value was “reduced the number; also recorded: significantly less”, the WBC counts entry is “lower white blood counts; also recorded: significantly lower”, the “platelet count (PLT)” value was “less thrombocytopenia; also recorded: higher” and the “red blood cell count (RBC)” value was “less anemia; also recorded: higher”. Besides, the “Median survival of AE9a mice” value in experiment [1] (cells treated ex vivo 12 hours with 50 μM Lys-CoA-Tat/DDDD-Tat or 20 μM C646/C37, sublethally irradiated recipients) turned out to be 43 days. Besides, in [2], the “level of acetylated A-EK43” value was “decreased the level; also recorded: decreased acetylation”. In addition, the “growth of U937 cells” value in the experiment with U937 cells is given as “inhibited the growth”. Also, the “growth of HEL cells” value in the experiment on HEL cells is “inhibited the growth”. Further, the “Median survival of MLL-AF9 mice” value in [3] was 28 days. Further, the “growth of HL60 cells” value in the experiment on HL60 cells is “minimal effect”.
